Measured values reported in patent US9156826B2, “Asymmetrical reversible neuromuscular blocking agents of ultra-short, short, or intermediate duration” (Cornell University, priority 2012, dated 2015).

Test system: mean arterial pressure
Assay: Rise in mean arterial pressure after cysteine dosing
Conditions: 100 mg/kg

With `N[C@H](CS)C(=O)O` [D-cysteine] the “rise in mean arterial pressure compared with L-cysteine” value was “less of a rise in mean arterial pressure than L-cysteine”.
